The values below come from ChEMBL document CHEMBL1124404, “Conformationally restricted and conformationally defined tyramine analogues as inhibitors of phenylethanolamine N-methyltransferase” (J Med Chem, 1989).

The structures appear in SMILES notation.

In experiment [1] the target is T1, Phenylethanolamine N-methyltransferase (Bos taurus, UniProt P10938).
T1 sequence (P10938 whole entry): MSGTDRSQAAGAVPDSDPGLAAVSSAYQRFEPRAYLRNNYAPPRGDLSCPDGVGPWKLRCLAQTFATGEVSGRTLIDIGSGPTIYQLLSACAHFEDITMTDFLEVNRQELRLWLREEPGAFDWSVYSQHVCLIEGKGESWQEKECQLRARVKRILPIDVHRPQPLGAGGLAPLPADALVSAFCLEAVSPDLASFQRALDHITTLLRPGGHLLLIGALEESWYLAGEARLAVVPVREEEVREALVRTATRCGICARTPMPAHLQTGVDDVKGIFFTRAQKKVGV
The experiment can be described thus: In vitro inhibitory activity against bovine phenylethanolamine N-methyl-transferase.

Experiment [2] concerns the target T1, Phenylethanolamine N-methyltransferase. The experiment can be described thus: In vitro inhibitory activity against Phenylethanolamine N-methyl-transferase (PNMT).
The target is the same in experiment [3]. Briefly: The compound was tested for In vitro inhibitory activity against Phenylethanolamine N-Methyltransferase (PNMT).

With `NC1CCc2c(O)cccc2C1` (stereo unspecified), in experiment [1], the affinity corresponds to a Ki of 21 µM. As to `NC12CCC(C1)c1cc(O)ccc1C2` (stereo unspecified), the inhibition constant (Ki) in experiment [1] was 111 µM. With `NC12CCC(C1)c1ccc(O)cc1C2` (stereo unspecified), the affinity in experiment [1] corresponds to a Ki of 1270 µM.

In the case of `COc1cccc2c1CCC(N)C2` (stereo unspecified), in experiment [1], the affinity, expressed as Ki, was 157 µM. As to `NC1CC2CC1c1ccccc12` (stereo unspecified), affinity in experiment [1] was put at a Ki of 479 µM.

`NCCc1ccccc1` [PHENETHYLAMINE] returned an inhibition constant Ki in experiment [1] of 854 µM. Take `NC1CCc2ccc(O)cc2C1` (stereo unspecified): the inhibitory constant (Ki) in experiment [2] worked out at 76 µM. In experiment [1], `NC12CCC(C1)c1c(O)cccc1C2` (stereo unspecified) gave a Ki of 3470 µM. `COc1cccc2c1C1CC2CC1N` (stereo unspecified) came in with a Ki in experiment [1] of over 2000 µM. Still for that read-out and setting: the result for `COc1ccc2c(c1)CC1(N)CCC2C1` (stereo unspecified) reads 1410 µM; that for `COc1ccc2c(c1)C1CCC(N)(C2)C1` (stereo unspecified), 389 µM; that for `COc1ccc2c(c1)C1CC2CC1N` (stereo unspecified), over 2000 µM. The same measure, in the same setting: the result for `NC1CCc2cccc(O)c2C1` (stereo unspecified) reads 39 µM.

`COc1cccc2c1CC(N)CC2` (stereo unspecified) registered an inhibitory constant (Ki) in experiment [1] of 144 µM. Same read-out and setting: then `NC1CC2CC1c1cccc(O)c12` (stereo unspecified), with over 10000 µM; and `COc1ccc2c(c1)CC(N)CC2` (stereo unspecified), with 228 µM. In turn, `NC1CCc2ccccc2C1` (stereo unspecified) had a Ki in experiment [1] of 6.8 µM. On to `COc1cccc2c1C1CC(N)C2C1` (stereo unspecified), for which the Ki in experiment [1] was over 2000 µM. In experiment [1], `NC1CC2CC1c1ccc(O)cc12` (stereo unspecified) returned an inhibitory constant (Ki) of 304 µM.

As to `NC1CCc2cc(O)ccc2C1` (stereo unspecified), in experiment [1], affinity was put at a Ki of 4.7 µM. As for `N[C@@H]1CC2CC1c1c(O)cccc12` (stereo partly specified), the Ki in experiment [1] is over 3000 µM.

As to `NC12CCC(C1)c1ccccc1C2` (stereo unspecified), in experiment [1], the affinity, expressed as Ki, was 206 µM. The same measure, in the same setting: then `COc1cccc2c1C1CCC(N)(C2)C1` (stereo unspecified), with 8420 µM. With `NCCc1cccc(O)c1`, the inhibition constant (Ki) in experiment [3] worked out at 1250 µM. `COc1ccc2c(c1)CCC(N)C2` (stereo unspecified): in experiment [1], the Ki was 34 µM. `NCCc1ccc(O)cc1` [TYRAMINE] had an inhibitory constant (Ki) in experiment [3] of 294 µM.
